# Measured values reported in ChEMBL document CHEMBL5360652, “Drug Discovery Targeting Nuclear Receptor Binding SET Domain Protein 2 (NSD2)” (J Med Chem, 2023).
# pEC50, pIC50, pKd: −log10 of the molar value. Structures can show the parent of a compound that is named as a salt.
# What was measured:
# [1] = target: T1, Histone-lysine N-methyltransferase NSD2 (Homo sapiens) (UniProt O96028); test: Inhibition of NSD2 (unknown origin) at 50 uM relative to control
# T1 sequence (whole entry): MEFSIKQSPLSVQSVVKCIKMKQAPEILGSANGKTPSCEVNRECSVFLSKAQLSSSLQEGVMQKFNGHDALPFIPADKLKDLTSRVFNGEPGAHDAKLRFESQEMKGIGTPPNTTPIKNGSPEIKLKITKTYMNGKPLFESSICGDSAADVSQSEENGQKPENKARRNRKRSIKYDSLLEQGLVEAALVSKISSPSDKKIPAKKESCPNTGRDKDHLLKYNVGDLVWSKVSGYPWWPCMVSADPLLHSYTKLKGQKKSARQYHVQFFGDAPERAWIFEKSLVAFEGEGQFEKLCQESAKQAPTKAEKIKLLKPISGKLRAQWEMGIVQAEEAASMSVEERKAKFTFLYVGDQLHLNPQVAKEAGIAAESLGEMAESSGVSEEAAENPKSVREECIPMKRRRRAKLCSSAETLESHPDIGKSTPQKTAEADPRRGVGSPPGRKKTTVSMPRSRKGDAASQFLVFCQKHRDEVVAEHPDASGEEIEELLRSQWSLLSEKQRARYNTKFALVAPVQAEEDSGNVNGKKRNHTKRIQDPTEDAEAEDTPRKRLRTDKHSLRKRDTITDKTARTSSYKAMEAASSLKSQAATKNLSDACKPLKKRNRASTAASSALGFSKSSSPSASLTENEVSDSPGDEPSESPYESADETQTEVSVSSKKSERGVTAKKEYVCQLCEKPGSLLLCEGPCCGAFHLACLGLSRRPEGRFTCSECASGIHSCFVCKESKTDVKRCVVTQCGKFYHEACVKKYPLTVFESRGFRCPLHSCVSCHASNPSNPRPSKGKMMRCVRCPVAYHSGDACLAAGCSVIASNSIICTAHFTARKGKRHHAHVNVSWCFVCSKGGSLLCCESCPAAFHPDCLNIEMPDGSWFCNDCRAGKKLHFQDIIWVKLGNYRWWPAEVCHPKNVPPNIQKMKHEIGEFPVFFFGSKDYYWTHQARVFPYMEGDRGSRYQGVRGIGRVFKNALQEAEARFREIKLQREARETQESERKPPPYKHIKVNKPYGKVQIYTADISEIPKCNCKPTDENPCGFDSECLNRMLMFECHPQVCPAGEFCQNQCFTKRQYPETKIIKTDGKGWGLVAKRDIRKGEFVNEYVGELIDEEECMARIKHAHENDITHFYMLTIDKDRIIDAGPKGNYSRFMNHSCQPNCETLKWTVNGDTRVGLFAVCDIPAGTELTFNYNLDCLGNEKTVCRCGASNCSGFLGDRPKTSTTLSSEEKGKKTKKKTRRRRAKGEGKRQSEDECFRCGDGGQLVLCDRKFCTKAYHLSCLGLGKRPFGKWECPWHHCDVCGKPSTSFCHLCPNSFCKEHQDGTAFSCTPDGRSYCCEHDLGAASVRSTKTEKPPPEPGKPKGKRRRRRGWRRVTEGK
# [2] = target: T2, Histone-lysine N-methyltransferase, H3 lysine-36 specific (Homo sapiens, UniProt Q96L73); test: Inhibition of human recombinant NSD1 incubated for 2 hrs by AlphaLISA method
# T2 sequence (Q96L73 whole entry): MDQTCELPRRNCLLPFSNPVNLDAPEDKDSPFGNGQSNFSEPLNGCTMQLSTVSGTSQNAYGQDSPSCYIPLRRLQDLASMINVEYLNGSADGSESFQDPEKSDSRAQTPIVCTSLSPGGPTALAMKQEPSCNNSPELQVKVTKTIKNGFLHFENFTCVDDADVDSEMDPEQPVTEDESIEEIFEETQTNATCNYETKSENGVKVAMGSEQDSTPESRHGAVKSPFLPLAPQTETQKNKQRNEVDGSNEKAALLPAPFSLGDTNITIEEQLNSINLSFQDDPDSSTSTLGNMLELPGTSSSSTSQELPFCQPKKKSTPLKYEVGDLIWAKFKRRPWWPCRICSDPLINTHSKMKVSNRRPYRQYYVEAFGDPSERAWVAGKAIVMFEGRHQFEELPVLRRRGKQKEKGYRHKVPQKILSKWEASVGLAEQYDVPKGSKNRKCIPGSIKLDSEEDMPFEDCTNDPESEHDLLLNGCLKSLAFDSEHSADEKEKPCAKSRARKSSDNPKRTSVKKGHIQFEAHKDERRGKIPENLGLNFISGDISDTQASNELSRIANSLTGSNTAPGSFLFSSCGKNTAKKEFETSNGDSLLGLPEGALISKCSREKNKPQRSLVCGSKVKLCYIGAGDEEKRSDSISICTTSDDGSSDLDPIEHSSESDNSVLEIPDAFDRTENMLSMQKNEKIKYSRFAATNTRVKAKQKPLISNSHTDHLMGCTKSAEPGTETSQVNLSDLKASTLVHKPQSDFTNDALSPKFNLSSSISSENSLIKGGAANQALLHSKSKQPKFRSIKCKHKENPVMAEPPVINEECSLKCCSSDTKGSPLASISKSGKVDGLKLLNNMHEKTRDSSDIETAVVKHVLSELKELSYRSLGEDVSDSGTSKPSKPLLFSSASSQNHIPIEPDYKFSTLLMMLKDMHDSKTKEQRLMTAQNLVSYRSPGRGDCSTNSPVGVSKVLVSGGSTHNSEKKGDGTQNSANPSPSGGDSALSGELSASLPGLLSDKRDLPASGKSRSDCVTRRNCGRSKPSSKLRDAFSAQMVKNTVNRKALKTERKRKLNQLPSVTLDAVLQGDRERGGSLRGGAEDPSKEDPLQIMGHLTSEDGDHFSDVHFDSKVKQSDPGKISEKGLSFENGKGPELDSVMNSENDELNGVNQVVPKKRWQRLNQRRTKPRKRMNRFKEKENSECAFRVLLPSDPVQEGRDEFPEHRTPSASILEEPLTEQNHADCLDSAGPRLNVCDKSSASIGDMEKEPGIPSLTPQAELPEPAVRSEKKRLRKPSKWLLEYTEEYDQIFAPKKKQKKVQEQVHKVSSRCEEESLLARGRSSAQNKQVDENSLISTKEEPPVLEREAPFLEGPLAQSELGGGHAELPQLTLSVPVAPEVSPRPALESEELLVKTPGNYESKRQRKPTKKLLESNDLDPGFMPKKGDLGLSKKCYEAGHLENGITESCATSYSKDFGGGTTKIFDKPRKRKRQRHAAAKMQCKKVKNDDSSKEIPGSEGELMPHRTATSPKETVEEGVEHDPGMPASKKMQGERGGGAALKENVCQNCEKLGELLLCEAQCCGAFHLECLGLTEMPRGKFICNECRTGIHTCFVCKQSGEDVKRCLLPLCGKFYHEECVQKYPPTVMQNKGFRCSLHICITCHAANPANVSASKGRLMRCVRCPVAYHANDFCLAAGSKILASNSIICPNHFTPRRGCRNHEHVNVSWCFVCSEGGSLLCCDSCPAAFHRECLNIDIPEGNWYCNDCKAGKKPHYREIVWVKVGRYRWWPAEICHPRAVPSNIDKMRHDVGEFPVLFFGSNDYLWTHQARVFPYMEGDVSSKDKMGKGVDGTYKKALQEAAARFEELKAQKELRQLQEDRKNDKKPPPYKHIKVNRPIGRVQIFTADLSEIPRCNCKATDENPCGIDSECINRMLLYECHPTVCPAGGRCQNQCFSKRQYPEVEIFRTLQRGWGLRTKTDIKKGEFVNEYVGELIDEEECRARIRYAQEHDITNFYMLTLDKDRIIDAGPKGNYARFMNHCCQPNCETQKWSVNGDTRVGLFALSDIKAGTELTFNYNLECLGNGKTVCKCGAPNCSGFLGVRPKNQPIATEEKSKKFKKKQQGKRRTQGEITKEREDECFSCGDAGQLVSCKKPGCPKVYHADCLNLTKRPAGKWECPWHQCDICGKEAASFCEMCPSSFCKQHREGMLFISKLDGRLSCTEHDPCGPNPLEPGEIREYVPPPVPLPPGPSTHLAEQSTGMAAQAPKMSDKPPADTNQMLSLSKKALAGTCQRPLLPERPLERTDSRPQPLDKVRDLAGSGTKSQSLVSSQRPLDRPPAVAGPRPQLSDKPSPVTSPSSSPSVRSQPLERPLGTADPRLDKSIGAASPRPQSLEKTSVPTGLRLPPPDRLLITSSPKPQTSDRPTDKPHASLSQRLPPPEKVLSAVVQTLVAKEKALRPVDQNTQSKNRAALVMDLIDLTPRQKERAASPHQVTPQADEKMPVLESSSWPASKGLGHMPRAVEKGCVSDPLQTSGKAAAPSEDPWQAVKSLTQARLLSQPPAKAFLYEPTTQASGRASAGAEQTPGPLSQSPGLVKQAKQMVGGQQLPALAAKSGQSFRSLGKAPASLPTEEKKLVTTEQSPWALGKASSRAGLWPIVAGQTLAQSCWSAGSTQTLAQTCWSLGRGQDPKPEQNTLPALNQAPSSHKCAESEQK
# [3] = target: T2, Histone-lysine N-methyltransferase, H3 lysine-36 specific; test: Inhibition of human recombinant NSD1 ([…] residues) expressed in Escherichia coli BL21 (DE3) incubated for 4 hrs by scintillation/filter assay
# [4] = target: T3, Histone-lysine N-methyltransferase NSD3 (Homo sapiens, UniProt Q9BZ95); test: Inhibition of human recombinant NSD3 ([…] residues) expressed in Escherichia coli BL21 (DE3) incubated for 4 hrs by scintillation/filter assay
# T3 sequence (Q9BZ95 whole entry): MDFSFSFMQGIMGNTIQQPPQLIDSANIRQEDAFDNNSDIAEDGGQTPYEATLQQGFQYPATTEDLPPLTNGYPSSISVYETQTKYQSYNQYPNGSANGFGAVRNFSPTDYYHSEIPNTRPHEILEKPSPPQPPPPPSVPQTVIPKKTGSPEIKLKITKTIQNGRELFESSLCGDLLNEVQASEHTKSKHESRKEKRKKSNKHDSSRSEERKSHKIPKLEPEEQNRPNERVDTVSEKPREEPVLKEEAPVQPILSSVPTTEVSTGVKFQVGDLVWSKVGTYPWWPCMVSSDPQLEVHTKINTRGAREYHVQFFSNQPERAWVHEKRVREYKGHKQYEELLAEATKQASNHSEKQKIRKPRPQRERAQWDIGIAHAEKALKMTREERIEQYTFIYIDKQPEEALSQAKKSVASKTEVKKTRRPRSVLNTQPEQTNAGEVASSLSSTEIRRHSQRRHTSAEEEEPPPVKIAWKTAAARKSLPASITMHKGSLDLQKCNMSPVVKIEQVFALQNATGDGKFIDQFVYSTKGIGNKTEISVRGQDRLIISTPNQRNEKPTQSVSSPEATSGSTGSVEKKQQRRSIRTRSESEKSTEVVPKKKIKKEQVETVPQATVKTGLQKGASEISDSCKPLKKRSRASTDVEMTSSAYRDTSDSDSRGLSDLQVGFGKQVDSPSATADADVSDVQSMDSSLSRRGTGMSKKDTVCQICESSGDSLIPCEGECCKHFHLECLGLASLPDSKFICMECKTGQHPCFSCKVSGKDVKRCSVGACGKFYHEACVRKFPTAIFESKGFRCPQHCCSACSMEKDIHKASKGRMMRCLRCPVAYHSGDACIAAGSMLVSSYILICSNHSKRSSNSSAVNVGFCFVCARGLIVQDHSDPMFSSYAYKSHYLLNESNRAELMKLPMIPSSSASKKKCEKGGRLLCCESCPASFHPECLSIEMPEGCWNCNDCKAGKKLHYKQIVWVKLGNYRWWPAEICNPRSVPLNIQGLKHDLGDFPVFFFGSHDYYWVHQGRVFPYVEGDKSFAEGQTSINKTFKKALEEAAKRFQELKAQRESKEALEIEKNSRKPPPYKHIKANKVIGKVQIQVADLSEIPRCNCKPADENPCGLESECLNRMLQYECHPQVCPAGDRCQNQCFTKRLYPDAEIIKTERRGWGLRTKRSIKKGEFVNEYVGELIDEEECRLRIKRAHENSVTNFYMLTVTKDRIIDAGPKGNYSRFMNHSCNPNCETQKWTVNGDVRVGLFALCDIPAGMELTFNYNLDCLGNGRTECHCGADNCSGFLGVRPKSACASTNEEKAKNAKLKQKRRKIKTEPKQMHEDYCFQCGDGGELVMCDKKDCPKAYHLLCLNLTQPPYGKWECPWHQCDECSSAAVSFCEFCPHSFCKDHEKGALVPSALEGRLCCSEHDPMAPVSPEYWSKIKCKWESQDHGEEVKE
# [5] = target: T4, Histone-lysine N-methyltransferase NSD2 (Homo sapiens, UniProt O96028); test: Binding affinity to NSD2 PWWP1 domain (unknown origin) assessed as dissociation constant
# T4 sequence (O96028 whole entry): T1 sequence (whole entry)
# [6] = target: T3, Histone-lysine N-methyltransferase NSD3; test: Binding affinity to human recombinant NSD3 PWWP1 domain assessed as dissociation constant
# [7] = target: von Hippel-Lindau disease tumor suppressor/Histone-lysine N-methyltransferase NSD3 (Homo sapiens, UniProt P40337+Q9BZ95); test: Protac activity at VHL/NSD3 in human MOLM-13 cells assessed as induction of NSD3 degradation incubated for 6 hrs by immunoblotting analysis; format: cell-based
# von Hippel-Lindau disease tumor suppressor/Histone-lysine N-methyltransferase NSD3, sequence (P40337 whole entry, one chain of several): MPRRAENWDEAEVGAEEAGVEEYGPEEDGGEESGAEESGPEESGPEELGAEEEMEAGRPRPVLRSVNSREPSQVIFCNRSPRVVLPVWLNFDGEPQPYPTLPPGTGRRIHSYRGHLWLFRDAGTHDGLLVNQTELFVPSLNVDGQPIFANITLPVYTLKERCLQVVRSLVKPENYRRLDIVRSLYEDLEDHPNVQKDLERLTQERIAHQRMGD
# [8] = target: von Hippel-Lindau disease tumor suppressor/Histone-lysine N-methyltransferase NSD3 (Homo sapiens) (UniProt Q9BZ95+P40337); test: Protac activity at VHL/NSD3 in human MOLM-13 cells assessed as induction of NSD3 degradation incubated for 48 hrs by immunoblotting analysis relative to control; format: cell-based
# von Hippel-Lindau disease tumor suppressor/Histone-lysine N-methyltransferase NSD3 (Homo sapiens), sequence (P40337 whole entry, looked up, one chain of several, the tested form may be a part): as the sequence (P40337 whole entry, one chain of several) above
# [9] = target: T2, Histone-lysine N-methyltransferase, H3 lysine-36 specific; test: Inhibition of NSD1 SET domain (1852 to 2105 residues) (unknown origin) expressed in Escherichia coli BL21 (DE3)
# [10] = target: T4, Histone-lysine N-methyltransferase NSD2; test: Inhibition of NSD2 (unknown origin)
# [11] = target: T4, Histone-lysine N-methyltransferase NSD2; test: Binding affinity to NSD2 PWWP1 domain (unknown origin) assessed as dissociation constant by SPR assay
# [12] = target: T1, Histone-lysine N-methyltransferase NSD2 (Homo sapiens); test: Induction of degradation of NSD2 in human U2OS cells assessed as maximum degradation relative to control; format: cell-based
# [13] = target: T4, Histone-lysine N-methyltransferase NSD2; test: Induction of degradation of NSD2 in human U2OS cells; format: cell-based
# [14] = target: T2, Histone-lysine N-methyltransferase, H3 lysine-36 specific; test: Binding affinity to NSD1 (unknown origin) assessed as dissociation constant by ITC assay
# [15] = target: T1, Histone-lysine N-methyltransferase NSD2 (Homo sapiens); test: Inhibition of NSD2 (unknown origin) at 10 uM relative to control
# [16] = target: Histone-lysine N-methyltransferase 2A (Homo sapiens) (UniProt Q03164); test: Inhibition of MLL1 (unknown origin) at 10 uM relative to control
# [17] = target: Histone-lysine N-methyltransferase SETDB1 (Homo sapiens) (UniProt Q15047); test: Inhibition of SETDB1 (unknown origin) at 10 uM relative to control
# PC-3 = test: Antiproliferative activity against human PC-3 cells assessed as cell growth inhibition incubated for 48 hrs by MTT assay; format: functional, cell-based; settings: PC-3, 48 h
# [18] = Inhibition of N-terminal hexa-histidine tagged NSD3 SET domain (1066 to 1288 residues) (unknown origin) expressed in Escherichia coli incubated for 4 hrs by ITC method; parameters: species or system Homo sapiens
# [19] = target: T2, Histone-lysine N-methyltransferase, H3 lysine-36 specific; test: Inhibition of N-terminal hexa-histidine tagged NSD1 SET domain (1852 to 2105 residues) (unknown origin) expressed in Escherichia coli incubated for 2 hrs by ITC method
# [20] = target: Histone-lysine N-methyltransferase NSD2 (Homo sapiens, UniProt O96028, E1099K); test: Inhibition of NSD2 E1099K mutant (unknown origin)
# Histone-lysine N-methyltransferase NSD2 (Homo sapiens, UniProt O96028, E1099K), sequence (O96028 whole entry E1099K): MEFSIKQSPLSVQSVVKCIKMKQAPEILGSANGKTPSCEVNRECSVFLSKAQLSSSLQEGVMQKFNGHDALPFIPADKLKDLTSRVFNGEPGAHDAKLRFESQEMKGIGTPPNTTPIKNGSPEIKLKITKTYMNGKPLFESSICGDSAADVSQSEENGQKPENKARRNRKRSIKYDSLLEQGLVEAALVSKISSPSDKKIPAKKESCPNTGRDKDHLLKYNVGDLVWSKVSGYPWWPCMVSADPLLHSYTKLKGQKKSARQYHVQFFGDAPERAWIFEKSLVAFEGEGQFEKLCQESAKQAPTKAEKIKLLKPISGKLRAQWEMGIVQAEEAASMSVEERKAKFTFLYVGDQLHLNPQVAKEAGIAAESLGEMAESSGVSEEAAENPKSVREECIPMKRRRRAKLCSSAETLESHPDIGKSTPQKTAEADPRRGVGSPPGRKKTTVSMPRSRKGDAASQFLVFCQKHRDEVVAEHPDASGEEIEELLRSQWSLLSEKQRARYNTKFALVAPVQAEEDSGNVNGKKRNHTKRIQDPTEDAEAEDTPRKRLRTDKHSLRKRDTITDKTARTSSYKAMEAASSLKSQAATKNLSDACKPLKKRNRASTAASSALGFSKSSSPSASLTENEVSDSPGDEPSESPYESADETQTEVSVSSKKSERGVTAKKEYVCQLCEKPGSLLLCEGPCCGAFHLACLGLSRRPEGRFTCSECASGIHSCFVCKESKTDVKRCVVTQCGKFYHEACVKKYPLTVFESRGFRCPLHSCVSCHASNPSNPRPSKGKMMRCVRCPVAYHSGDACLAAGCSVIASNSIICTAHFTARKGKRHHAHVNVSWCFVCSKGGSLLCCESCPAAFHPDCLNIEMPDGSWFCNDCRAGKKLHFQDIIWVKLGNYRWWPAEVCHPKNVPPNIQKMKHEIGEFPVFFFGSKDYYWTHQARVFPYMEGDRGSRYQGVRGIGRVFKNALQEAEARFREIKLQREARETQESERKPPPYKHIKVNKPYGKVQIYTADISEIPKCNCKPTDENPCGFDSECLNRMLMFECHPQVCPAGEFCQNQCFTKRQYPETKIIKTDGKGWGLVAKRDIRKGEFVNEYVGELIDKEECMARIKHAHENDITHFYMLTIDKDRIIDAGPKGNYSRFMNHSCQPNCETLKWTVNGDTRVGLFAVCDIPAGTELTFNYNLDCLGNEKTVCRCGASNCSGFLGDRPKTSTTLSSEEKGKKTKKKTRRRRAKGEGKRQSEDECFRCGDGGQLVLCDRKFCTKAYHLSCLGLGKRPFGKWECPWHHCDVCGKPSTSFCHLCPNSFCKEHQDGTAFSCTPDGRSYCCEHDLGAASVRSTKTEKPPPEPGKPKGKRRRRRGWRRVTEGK
# [21] = target: Histone-lysine N-methyltransferase NSD2 (Homo sapiens, UniProt O96028, T1150A); test: Inhibition of NSD2 T1150A mutant (unknown origin)
# Histone-lysine N-methyltransferase NSD2 (Homo sapiens, UniProt O96028, T1150A), sequence (O96028 whole entry T1150A): as the sequence (O96028 whole entry E1099K) above, with K1099E, T1150A counted along it
# U2OS = test: Cytotoxicity against human U2OS cells assessed as cell growth inhibition; format: functional
# [22] = target: T3, Histone-lysine N-methyltransferase NSD3; test: Antagonist activity against recombinant human GST-tagged NSD3 PWWP1 domain (247 to 398 residues) expressed in Escherichia coli BL21(DE3) incubated for 60 mins by TR-FRET assay
# [23] = test system: Respiratory syncytial virus; test: Antiviral activity against RSV assessed as viral growth inhibition; format: functional, organism-based; settings: human respiratory syncytial virus
compound,measurement,setting,value
N#Cc1cccc(NC(=O)Nc2ccc3nnsc3c2)c1,inhibition,[1],92%
Nc1ncnc2c1ncn2Cc1cc(-c2ccc(F)c(F)c2)ncc1N1CCC[C@](N)(COC2CC2)C1,pIC50,[2],6.67
O=C(Nc1cccc([N+](=O)[O-])c1)Nc1ccc2nnsc2c1,inhibition,[1],96%
COc1cc2nc(N3CCCN(C)CC3)nc(NC3CCN(Cc4ccccc4)CC3)c2cc1OC,pIC50,[3],3.95
same,pIC50,[4],4.02
O=C(CCCC[C@@H]1SC[C@@H]2NC(=O)N[C@@H]21)NCCOCCOCCOCCOCCOCCOCCOCCOCCOCCOCCOCCNC(=O)c1ccc(NC(=O)c2ccc(CN(C(=O)c3ccc4c(c3)OCC(=O)N4)C3CC3)cc2)cc1,pKd,[5],7.34
same,pKd,[6],7.34
COc1ccc(-c2cc(Cn3cnc4c(N)ncnc43)c(N3CCC[C@](N)(COC4CCC4)C3)cn2)cc1F,pIC50,[2],6.57
CC(=O)c1ccc(-c2cc(NC(=O)Nc3ccc4nnsc4c3)cc(C(F)(F)F)c2)s1,inhibition,[1],99%
Cc1cc(CNCCCC(=O)NCCCCCCCCC(=O)N[C@H](C(=O)N2C[C@H](O)C[C@H]2C(=O)N[C@@H](C)c2ccc(-c3scnc3C)cc2)C(C)(C)C)cc(C)c1-c1ncn(C)c1-c1ccnc2cc(F)ccc12,pEC50,[7],5.31
same,Emax,[8],80%
same,pKd,[6],5.89
O=C1O[C@@H](C(=O)N2CCN(Cc3nc4sc5c(c4c(=O)[nH]3)CCCC5)CC2)Cc2ccccc21,pIC50,[9],< 3.00
O=C1COc2cc(C(=O)N(Cc3cccs3)C3CC3)ccc2N1,pKd,[5],5.47
Cn1nnc2cc(NC(=O)Nc3cccc([N+](=O)[O-])c3)ccc21,pIC50,[10],5.08
N=C(N)NCCC[C@H](N)C(=O)NCCCCCCNC(=O)c1ccc(NC(=O)c2ccc(CN(C(=O)c3ccc4c(c3)OCC(=O)N4)C3CC3)cc2)cc1,pKd,[11],7.85
same,Emax,[12],81%
same,pEC50,[13],5.92
CCN(CC)CCCC(C)Nc1ccnc2cc(Cl)ccc12 (centres undefined) [CHLOROQUINE PHOSPHATE],pKd,[14],5.33
COC[C@@]1(N)CCCN(c2cnc(-c3cc(Cl)ccc3F)cc2Cn2cnc3c(N)ncnc32)C1,pIC50,[2],6.61
COC(=O)c1cc(NC(=O)Nc2ccc3nnsc3c2)cc(C(=O)OC)c1,inhibition,[1],95%
same,inhibition,[15],97%
same,inhibition,[16],79%
same,inhibition,[17],85%
same,pIC50,PC-3,> 5.00
C=CC(=O)Nc1cc(NC(=O)Nc2ccc3nnsc3c2)cc(C(=O)OC)c1,inhibition,[1],92%
CC1CN1c1cc(O)c2nc(N)sc2c1 (centres undefined),pIC50,[18],4.84
COC[C@@]1(N)CCCN(c2cnc(-c3ccc(F)c(F)c3)cc2Cn2cnc3c(N)ncnc32)C1,pIC50,[2],6.80
N#CSc1cc(O)c2nc(N)sc2c1,pIC50,[19],> 4.70
NCCCCCCNC(=O)c1ccc(NC(=O)c2ccc(CN(C(=O)c3ccc4c(c3)OCC(=O)N4)C3CC3)cc2)cc1,Emax,[12],79%
same,pEC50,[13],6.46
COC[C@@]1(N)CCCN(c2cnc(-c3ccc(F)cc3F)cc2Cn2cnc3c(N)ncnc32)C1,pIC50,[2],6.65
O=C1C(Cl)=C(NCCN2CCOCC2)C(=O)c2ncccc21,pIC50,[20],6.96
same,pIC50,[21],6.77
same,CC50,U2OS,270 nM
Cc1cc(CN2CCC(N)CC2)cc(C)c1-c1ncn(C)c1-c1ccc(C#N)c2ccccc12,pIC50,[22],6.96
same,pIC50,[23],5.20
CCN(CC)CCCC(C)Nc1c2ccc(Cl)cc2nc2ccc(OC)cc12 (centres undefined) [QUINACRINE DIHYDROCHLORIDE],pKd,[14],5.85
O=C1c2c(O)ccc(O)c2C(=O)C2C(NCCNCCO)=CC=C(NCCNCCO)C12 (centres undefined),pKd,[14],5.92
